From US5744023A, “Method for separation and recovery of organogermanium compound” (Asai Germanium Research Institute Co., Ltd., priority 1994, dated 1998) come the findings set out here.

The nature of data set [1]: acute oral toxicity (LD50) in rats. The following applies: rat, in vivo, orally administered. The source says: (§1) Since these organogermanium compounds are an expensive and valuable resource, it is desirable that they can be separated and recovered from respective reaction mixtures for reutilization. However, both the saccharides and the organogermanium compounds are organic compounds of fairly high molecular weights and no method for effective separation of the two kinds of the compounds is known.

Data set [2] in a line: acute oral toxicity (LD50) in mice. Particulars: mouse, in vivo, orally administered.
Source text: as §1

Bounds are passed on as bounds.

The LD50 is the dose at which mortality reaches 50%.

`O=C(O)C[CH2][Ge](=[O])[O][Ge](=[O])[CH2]CC(=O)O` [Compound 1, 2-carboxyethylgermanium sesquioxide]: the values for the LD50 in data set [1] and in data set [2] were at least 10000 mg/kg and at least 6000 mg/kg, respectively.
